In one test the test system is TGF-β. Description: TGF-β in culture medium of human conjunctival cells (ELISA). The format is cell-based. As to the method: (§1) Culture media were harvested 24 h later and the levels of TGF-β, IL-6 and IL-8 were determined by ELISA. Of note, the levels of IL-1β were below the limit of detection.
In general terms: ELISA stands for enzyme-linked immunosorbent assay.

In a further test the test system is IL-8. Description: IL-8 in culture medium of human conjunctival cells (ELISA). Type of test: cell-based. As to the method: as §1
The test system of test [1] is NF-κB. Description: NF-κB activation by EMSA in TNF-α-stimulated human conjunctival cells. As to conditions: PS 5 h then TNF-α 10 ng/ml 1 h, FIG. 6A. Type of test: cell-based. An excerpt:
The Mechanism of Action of PS in Dry Eye. Tissue culture, animal and human studies have established inflammation as the core mechanism of DED^8. To determine the mechanism of action of PS in DED the response to PS of several factors known to play an important role in the inflammation associated with DED was explored. They include NF-κB; the cytokines TGF-β, IL-1 β, IL-6 and IL-8; the collagenases MMP-1 and MMP-9; and PGE2. In these studies we used human conjunctival epithelial cells, the Wong-Kilbourne derivative of Chang conjunctival cells (clone 1 to 5c-41 American Type Culture Collection (Manassas, Va.) certified cell line, 20.2).
(§2) Human conjunctival cells were treated with various concentrations of PS. Five hours later, TNF-α was added to the culture medium to a final concentration of 10 ng/ml and the status of NF-κB activation was determined by EMSA 1 h later. […] Similarly, after 1 week of treatment, PS suppressed NF-κB activation in the ILG of rabbits with DED compared to those treated with vehicle.
On the technique in general: A gel shift assay detects complexes by their altered migration in electrophoresis.

The subject of test [2] is NF-κB. Nature of the test: NF-κB activation in the ILG of rabbits with DED. Particulars: 1 week of treatment, vs vehicle. The format is in vivo, rabbit. On the procedure: as §2
The mark [3] stands for this setting: TNF-α-stimulated, PS 1×IC50, media at 24 h.

Take `CCOP(=O)(OCC)OCCCCOC(=O)CC1=C(C)/C(=C/c2ccc([S+](C)[O-])cc2)c2ccc(F)cc21` (stereo not drawn) [PS, phosphosulindac]: the TGF-β reduction with TGF-β (setting [3]) was found to be 19%; with TGF-β (unstimulated levels, PS 1×IC50, not statistically significant), 4.7%. The IL-8 reduction is 92% in the test with IL-8 (setting [3]) and 62% with IL-8 (unstimulated levels, PS 1×IC50). Further, the “activation of NF-κB (EMSA)” value in the test with NF-κB [1] is “significantly suppressed”. Moreover, the “NF-κB activation in the ILG” value with NF-κB [2] is “suppressed”.

The values above are taken from patent publication US11510931B2, “Compositions and methods for treating ophthalmic conditions” (MEDICON PHARMACEUTICALS, INC., priority 2016, dated 2022).
